Values of other authors in US20080051459A1, “LONG TERM 24-HOUR INTESTINAL ADMINISTRATION OF LEVODOPA/CARBIDOPA” (Solvay Pharmaceuticals GmbH, priority 2006, published 2008).

Tested on: patient
Conditions: one patient; from 86 to 100 mg/hour in about 5 weeks

N[C@@H](Cc1ccc(O)c(O)c1)C(=O)O [levodopa]
Increase in administration rate (dose requirement): 16%
